Measured values published in patent publication US20200010479A1, “INHIBITORS OF MICROBIAL BETA-GLUCURONIDASE ENZYMES AND USES THEREOF” (THE UNIVERSITY OF NORTH CAROLINA AT CHAPEL HILL, priority 2017, published 2020).
“Also recorded” adds a separate entry of the source.

Key:
[1] = molecular target: T1, E. coli GUS (Escherichia coli, UniProt P05804); experiment: In vitro EcGUS inhibition, cleavage of PNPG by purified E. coli GUS; format: biochemical; conditions: PNPG substrate, 37° C., 2 hours
Procedure: To assess GUS inhibition, cleavage of p-nitrophenyl-β-D-glucuronide (PNPG) by purified E. coli GUS in the presence of inhibitor was measured. The reaction was performed in 96-well clear-bottom plates at a volume of 50 μL. Each reaction contained 5 μL of 100 nM E. coli GUS, 5 μL of inhibitor at various concentrations, 10 μL of 250 mM HEPES and 250 mM NaCl assay buffer, and 30 μL of 1.5 mM PNPG. The reaction was initiated by addition of PNPG and incubated at 37° C. for 2 hours. End point absorbance values at 410 nm were measured using a PHERAstar Plus microplate reader. The resulting data were fit with a four-parameter logistic log function in SigmaPlot 13.0 to determine IC50 values. IC50 was defined as the concentration of inhibitor that yields a 50% reduction in product formation at equilibrium.

[2] = molecular target: T1, E. coli GUS; format: biochemical; conditions: purified L1 enzyme, in vitro
[3] = system: E. eligens GUS; experiment: SN-38-G processing by purified GUS enzymes, with inhibitors; format: biochemical, Eubacterium eligens; conditions: purified L1 enzyme, in vitro
[4] = molecular target: T2, S. agalactiae GUS (Streptococcus agalactiae serotype V, UniProt Q8E0N2); format: biochemical; conditions: purified L1 enzyme, in vitro
T2 construct: made in house

[5] = molecular target: C. perfringens GUS (Clostridium perfringens, UniProt Q8XP19); format: biochemical
[6] = molecular target: T3, Mini-Loop 1 (mL1) GUS from Bacteroides fragilis (Bacteroides fragilis, UniProt Q5LIC7); format: biochemical; conditions: purified mL1 enzyme, in vitro
T3 construct: made in house

[7] = system: Loop 2 (L2) enzyme from Bacteroides uniformis; experiment: SN-38-G processing by purified GUS enzymes, with inhibitors; format: biochemical; conditions: in vitro
[8] = system: panel of purified GUS enzymes present in the human gut microbiota; experiment: SN-38-G processing by panel of purified GUS enzymes, with inhibitors; format: biochemical; conditions: comparison of inhibitors over the panel
[9] = system: gut microbial GUS proteins; experiment: SN-38-G processing by in fimo samples (enzyme mixtures from intestinal contents); format: biochemical, naïve FVB mice
Excerpt: To examine the activity of a more relevant sample of gut microbial GUS proteins, intestinal contents from naïve FVB mice in SPF conditions were obtained. […] As used herein, the ex vivo intestinal samples examined scientifically are to be termed “in fimo” from “fimus”, used by […] and in formal Latin to mean “excrement”. […] FIGS. 14A and 14B). […] FIGS. 14A and 14B).

[10] = system: gut microbial enzymes; experiment: SN-38-G reactivation in fimo samples after treatment of FVB mice; format: in vivo
Procedure: The FVB mice were treated with irinotecan, the Inh9, or both irinotecan and Inh9, and it was determined how these treatments affected SN-38-G reactivation in fimo samples collected after 24 hours. […] A similar study was conducted in which samples were collected at 120 hours; at this five-day timepoint, no difference was found between the four treatment groups (data not shown).

[11] = system: murine intestinal epithelium; experiment: Time-course of gut damage after a single treatment in FVB mice; format: in vivo, female FVB mice
Procedure: It has been previously reported that irinotecan induces apoptosis and reduces the number of mitotic structures in the rat intestinal epithelium (Takasuna 1996). To assess whether Inh9 impacts cell proliferation in the murine intestinal epithelium, we undertook two time-course studies. Four groups of age-, weight- and litter-matched female FVB mice were treated with a single treatment of vehicle, Inh9 (1 mg/kg p.o.), irinotecan (50 mg/kg i.p.) or irinotecan and Inh9. One set of animals were euthanized after 24 hours, and a second set after 120 hours. To assess overall effects on the animals, changes in body weight, spleen mass and hematocrit were measured. In the GI tract, levels of apoptotic cells and proliferative cells were measured and epithelial samples were examined by H&E staining.
Thus, at five days, Inh9 appears to protect this measure of animal health. […] As such, the protection afforded at 24 hours by Inh9 is sufficient to improve subsequent gut epithelial outcomes in mice several days after administration.

[12] = system: gut microbiota; experiment: 16S rRNA metataxonomic analysis of luminal contents, athymic Sum149 xenograft mice; format: in vivo
Procedure: A metataxonomic analysis was performed of the luminal contents of athymic mice bearing Sum149 triple-negative breast cancer xenograft tumors by sequencing the V3-V4 region of the bacterial 16s rRNA gene. […] Gut microbial diversity is associated with animal and human health, while reduced diversity is associated with disease in both model organisms and humans (REFs). Thus, Inh9 blunts the negative effects of irinotecan on gut microbial diversity in athymic tumor xenograft mice, and is capable of increases species richness in these animals.
At the phylum level, the lumenal contents of vehicle-treated mice contained 50% Bacteroidetes, 42% Firmicutes, and 4% Proteobacteria (FIG. 22B). […] Thus, in immune-deficient mice, Inh9 markedly protects gut microbial composition in athymic mice, increasing diversity and reducing irinotecan-induced increases in Proteobacteria.

[13] = system: gut microbiota; experiment: Gut microbiota composition in C3Tag GEMM animals; format: in vivo, C3Tag GEMM mice; conditions: mice with intact immune system
Excerpt: Finally, we examined the effects of irinotecan and GUS inhibitor on the composition of the gut microbiota in […] triple-negative breast cancer GEMM animals. […] While the vehicle and Inh9 treatment groups appeared similar by PCoA1 analysis, both the irinotecan and IRI+Inh9 groups were similar to each other and distinct from the non-irinotecan mice (FIG. 22C). However, unlike the xenograft mice, irinotecan induces much smaller changes in the composition of the gut microbiota in these GEMM animals. […] These changes were not as dramatic as those observed with the athymic Sum149 xenograft mice presented above. […] In these GEMM animals, though, no change in Enterobacteriaceae or other Gammaproteobacteria families was observed; thus, the taxa that drive the increases in Proteobacteria are not known in these immune-competent mice.

[14] = system: SUM149 cells; experiment: SUM149 triple negative breast cancer xenograft in athymic nude mice
[15] = system: C3-Tag mammary tumors; experiment: C3-Tag genetically engineered mouse model (GEMM) of triple-negative breast cancer
[16] = Inh9 co-treatment with irinotecan, 24 hours
[17] = irinotecan plus Inh9 vs irinotecan alone, 120 hours
[18] = irinotecan and Inh9 vs irinotecan alone

T1 sequence (P05804 whole entry): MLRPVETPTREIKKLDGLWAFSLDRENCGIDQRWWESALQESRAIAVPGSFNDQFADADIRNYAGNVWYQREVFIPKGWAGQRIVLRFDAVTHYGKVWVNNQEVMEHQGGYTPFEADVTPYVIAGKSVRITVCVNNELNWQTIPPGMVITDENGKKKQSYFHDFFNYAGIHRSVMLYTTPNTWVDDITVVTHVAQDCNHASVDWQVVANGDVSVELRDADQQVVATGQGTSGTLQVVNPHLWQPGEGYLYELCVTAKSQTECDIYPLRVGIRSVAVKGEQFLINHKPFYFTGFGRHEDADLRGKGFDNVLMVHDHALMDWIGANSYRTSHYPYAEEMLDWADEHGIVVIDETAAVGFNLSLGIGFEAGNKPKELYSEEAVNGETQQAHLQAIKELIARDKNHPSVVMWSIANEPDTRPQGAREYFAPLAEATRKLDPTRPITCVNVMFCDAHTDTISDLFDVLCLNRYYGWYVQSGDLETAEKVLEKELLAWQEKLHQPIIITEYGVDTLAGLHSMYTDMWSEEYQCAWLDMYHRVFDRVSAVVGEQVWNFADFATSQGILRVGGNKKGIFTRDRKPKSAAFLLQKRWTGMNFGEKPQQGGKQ
Sequence of C. perfringens GUS (Q8XP19 whole entry, looked up): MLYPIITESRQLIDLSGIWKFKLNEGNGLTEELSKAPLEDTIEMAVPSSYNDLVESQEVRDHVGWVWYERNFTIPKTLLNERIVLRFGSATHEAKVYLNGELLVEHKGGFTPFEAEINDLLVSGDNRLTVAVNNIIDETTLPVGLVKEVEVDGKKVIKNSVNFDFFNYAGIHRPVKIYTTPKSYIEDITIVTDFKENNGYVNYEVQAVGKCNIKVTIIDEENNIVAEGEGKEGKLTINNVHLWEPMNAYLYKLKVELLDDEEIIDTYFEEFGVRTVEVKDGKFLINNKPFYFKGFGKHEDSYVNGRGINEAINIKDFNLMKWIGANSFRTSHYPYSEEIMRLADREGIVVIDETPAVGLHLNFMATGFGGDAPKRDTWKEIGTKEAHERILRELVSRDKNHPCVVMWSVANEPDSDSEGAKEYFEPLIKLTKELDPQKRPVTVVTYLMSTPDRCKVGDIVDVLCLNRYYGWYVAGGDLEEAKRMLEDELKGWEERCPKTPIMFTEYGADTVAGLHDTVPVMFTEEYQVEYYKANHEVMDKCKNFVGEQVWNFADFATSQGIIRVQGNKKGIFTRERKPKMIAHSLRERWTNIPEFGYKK
T2 sequence (Q8E0N2 whole entry): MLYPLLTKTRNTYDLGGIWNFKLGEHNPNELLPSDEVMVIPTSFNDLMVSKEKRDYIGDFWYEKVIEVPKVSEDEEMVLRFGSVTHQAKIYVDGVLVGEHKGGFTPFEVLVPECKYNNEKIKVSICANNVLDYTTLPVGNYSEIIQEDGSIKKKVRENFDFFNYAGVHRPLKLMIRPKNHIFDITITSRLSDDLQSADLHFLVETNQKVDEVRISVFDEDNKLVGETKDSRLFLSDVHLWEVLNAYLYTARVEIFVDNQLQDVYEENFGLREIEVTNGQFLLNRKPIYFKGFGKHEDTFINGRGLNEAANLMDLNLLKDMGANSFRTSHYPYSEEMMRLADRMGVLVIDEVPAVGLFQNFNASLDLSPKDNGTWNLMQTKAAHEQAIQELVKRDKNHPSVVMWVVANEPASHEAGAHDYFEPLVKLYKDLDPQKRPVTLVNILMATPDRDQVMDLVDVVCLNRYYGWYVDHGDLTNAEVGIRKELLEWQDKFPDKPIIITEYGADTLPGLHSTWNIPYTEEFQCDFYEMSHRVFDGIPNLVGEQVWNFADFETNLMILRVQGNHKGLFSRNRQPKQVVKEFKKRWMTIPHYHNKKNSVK
T3 sequence (Q5LIC7 whole entry): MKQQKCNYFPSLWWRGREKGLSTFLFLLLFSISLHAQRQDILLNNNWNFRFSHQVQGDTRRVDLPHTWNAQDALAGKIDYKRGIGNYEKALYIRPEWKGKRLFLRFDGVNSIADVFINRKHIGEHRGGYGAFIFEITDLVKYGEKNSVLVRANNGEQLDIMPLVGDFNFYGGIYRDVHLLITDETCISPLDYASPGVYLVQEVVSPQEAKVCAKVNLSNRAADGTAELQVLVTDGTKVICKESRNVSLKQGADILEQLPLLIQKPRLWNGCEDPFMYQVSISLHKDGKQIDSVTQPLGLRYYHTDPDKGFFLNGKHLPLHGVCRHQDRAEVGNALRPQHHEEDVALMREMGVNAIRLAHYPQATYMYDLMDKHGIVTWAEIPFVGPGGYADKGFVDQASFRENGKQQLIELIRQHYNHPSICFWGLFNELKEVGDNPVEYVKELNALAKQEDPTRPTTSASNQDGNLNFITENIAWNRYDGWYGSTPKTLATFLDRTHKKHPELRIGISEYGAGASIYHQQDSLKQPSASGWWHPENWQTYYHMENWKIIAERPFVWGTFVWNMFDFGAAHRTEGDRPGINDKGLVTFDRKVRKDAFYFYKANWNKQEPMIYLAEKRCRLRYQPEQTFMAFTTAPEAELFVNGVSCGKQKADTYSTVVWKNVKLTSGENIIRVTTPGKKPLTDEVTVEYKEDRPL

Q: Which results are given for `C1CCc2c(c(N3CCOCC3)nc3sc4c(N5CCNCC5)nnnc4c23)C1` [Inh9]?
A: IC50 [1]: 380 nM; inhibition of SN-38-G processing (apparent kcat) [2]: efficiently reduced; inhibition of SN-38-G processing (apparent kcat) [3]: efficiently reduced; inhibition of SN-38-G processing (apparent kcat) [4]: efficiently reduced; inhibition of SN-38-G processing (apparent kcat) [5]: efficiently reduced; inhibition of SN-38-G processing [6]: did not inhibit; inhibition of SN-38-G processing [7]: did not inhibit; inhibiting GUS-mediated reactivation of SN-38-G in vitro [8]: superior to Inh1; SN-38-G reactivation by cecal contents ([9]; Inh9 at 50 and 100 μM): dose-dependent; also recorded: significantly reduce; reducing SN-38-G processing in fimo ([9]; cecum, proximal and distal colon samples, comparison of inhibitors): superior to Inh1; level of SN-38-G reactivation by in fimo samples ([10]; Inh9 plus irinotecan compared to irinotecan alone, 24 hours): significantly reduced; effects on SN-38-G reactivation by in fimo samples ([10]; samples collected at 120 hours): no longer detected; SN-38-G processing activity in the mouse cecum (in fimo samples) ([10]; single agent, samples collected after 24 hours): did not alter; acute toxicity after single IRI injection [11, 16]: modestly reduces; apoptotic cells per crypt [11, 16]: modest protection; apoptotic cells per crypt ([11]; Inh9 co-treatment with irinotecan, 120 hours): modest protection; numbers of proliferative cells in the GI tract (BrdU) ([11]; between treatment groups, 24 hours): no change; number of proliferative cells per crypt in ileum, proximal colon and distal colon ([11]; co-treatment of irinotecan with Inh9, 120 hours): significantly increased; body weight or spleen mass [11, 17]: no changes; hematocrit [11, 17]: significant increase; reduction of the levels of Proteobacteria compared to vehicle ([12]; GUS inhibitor alone): more than 10 fold; species diversity, Chao1 richness ([12]; IRI+Inh9): maintained species diversity; Bacteroidetes in lumenal contents, phylum level ([12]; irinotecan and Inh9): 42%; Firmicutes in lumenal contents, phylum level ([12]; irinotecan and Inh9): 43%; Proteobacteria in lumenal contents, phylum level ([12]; irinotecan and Inh9): 13%; Proteobacteria in lumenal contents, phylum level ([12]; single agent): 0.3%; species diversity, Chao1 richness ([12]; single agent): uniformly maximized species richness; composition of the gut microbiota [13]: does not change; post-sacrifice colon histological examination ([14]; Inh9 with irinotecan): marked protection; diarrhea [14, 18]: significantly less diarrhea; irinotecan-induced weight loss / body weight [14, 18]: significant improvement; also recorded: significantly protected; survival [14, 18]: slightly improved overall survival; also recorded: trended toward living longer; terminal tumor masses ([14]; irinotecan-plus-Inh9): significantly reduced; tumor volumes ([14]; irinotecan-plus-Inh9 compared to vehicle and Inh9 cohorts): significantly reduced; colon tissue, H&E staining ([15]; IRI+Inh9): maintained a properly assembled colonic glandular structure; day to which the study could continue ([15]; IRI+Inh9): 49 days; primary tumor as share of body weight ([15]; IRI+Inh9): below 1%; primary tumor mass upon sacrifice ([15]; IRI+Inh9): less than 100 mg; time some animals remained diarrhea-free ([15]; IRI+Inh9): 42 days; body weight over the course of the study ([15]; IRI+Inh9, after the first 21 days): rebounded and recovered their lost weight; survival longer than IRI (Kaplan-Meier) ([15]; IRI+Inh9 vs IRI): 43%; number of doses of irinotecan received ([15]; IRI+Inh9 vs IRI alone): significantly higher number of IRI doses; also recorded: more doses of irinotecan; survival longer than Veh and Inh9 (Kaplan-Meier) ([15]; IRI+Inh9 vs Veh and Inh9): 29%; diarrhea ([15]; IRI+Inh9 vs irinotecan alone): significantly reduced diarrhea; diarrhea ([15]; Inh9 alone): did not develop diarrhea; time followed until tumor size necessitated euthanasia ([15]; Inh9 alone (as vehicle)): 70 to 80 days; extension of overall survival of irinotecan-treated mice ([15]; Inh9 co-treatment): 14 days; number of tumors observed in the animals ([15]; between treatment groups): did not differ; tumor volumes measured during the study ([15]; irinotecan plus GUS inhibition): significantly smaller tumors; body weight over the course of the study ([15]; single agent): gained weight; colon tissue, H&E staining ([15]; single agent): healthy colonic histology; primary tumor as share of body weight ([15]; single agent): more than 5%; primary tumor mass upon sacrifice ([15]; single agent): 1.5 g; tumor volumes measured during the study ([15]; single agent): reduced tumor volumes; tumor number and relative mass (FIG. 9) ([15]; with Inh9): significant reduction
